According to patent publication US20060058350A1, “Alkynyl-substituted azasugar derivative and drug containing the same as the active ingredient” (Carna Biosciences, Inc., priority 2002, published 2006):

Key:
Assay type in all cases: biochemical
MMP-3 = molecular target: T1, MMP-3 (Homo sapiens, UniProt P08254); assay: Measurement of matrix metalloprotease (MMP) inhibitory activity, MMP-3, fluorescence quenching peptide substrate; details: recombinant MMP-3 activated with para-aminophenyl mercury acetate; 37° C., 2 hours; Ki calculated from IC50 and Km; read-out: Ki MMP3
T1 construct: a DNA fragment containing a pro-region and a catalyst region in MMP-3 was also prepared; histidine tag (N); made in house; host or cells: E. coli
Procedure: (§1) A DNA fragment coding for catalytic regions in MMP-1 and MMP-9 was amplified by a PCR method with cDNA prepared from HT-1080 cells derived from human fibrosarcoma. In the same manner, a DNA fragment containing a pro-region and a catalyst region in MMP-3 was also prepared. The amplified DNA fragment was cloned into a commercially available expression vector which was designed to allow a histidine tag to add to the N-terminal, and then transformed into E. coli. The resulting transformants were cultured and a recombinant MMP was purified from a cell lysate using Ni-NTA regin (QIAGEN INC.). Recombinant MMP-3 was further activated by reacting with 1 mM para-aminophenyl mercury acetate at 37° C. for one hour.
(§2) The inhibitory activity was measured according to the method by Night et al. [FEBS Lett. 296, p 263 (1992)] or the method by Nagase et al. [J. Biol. Chem. 269, p 20952 (1994)] using a 96-half well black microplate. A solution prepared by dissolving each of test compounds (a) to (f) in dimethyl sulfoxide was diluted with a reaction buffer [50 mM Tris-HCl (pH 7.5) buffer containing 150 mM NaCl, 10 mM CaCl2, 0.05% Brij-35®] and then 25 μL of the dilute solution was added in a well.
(§3) After 25 μL of a MMP solution diluted with the reaction buffer was added thereto, the mixture was incubated at 37° C. for 10 minutes. Then, the reaction was initiated by adding 50 μL of a 10 μM fluorescence quenching peptide substrate prepared from the reaction buffer. As the fluorescence quenching peptide substrate, MCA-Pro-Leu-Gly-Leu-DPA-Ala-Arg-NH2 (MCA=7-methoxycoumarin-4-acetyl and DPA=N-3-(2,4-dinitrophenyl)-L-2,3-diaminopropionyl) were used for MMP-1 and MMP-9, and MCA-Arg-Pro-Lys-Pro-Val-Nva-Trp-Arg-Lys (DNP)-NH2 (DNP=2,4-dinitrophenyl) was used for MMP-3. A fluorescence intensity (excitation 320/fluoresecence 405 nm) immediately after the initiation of the reaction and a fluorescence intensity after the reaction at 37° C. (for 2 hours for MMP-1 and MMP-3, for 3 hours for MMP-9) were measured and a difference in fluorescence intensity was taken as an indicator of enzymatic activity. The inhibition rate (%) at each concentration of an inhibitor was calculated and an IC50 value was determined from the dose-response curve. From this IC50 value and previously determined Km value for a […] substrate, a Ki value was calculated using GraphPad Prism software (GraphPad Software, Inc.).

MMP-1 = molecular target: T2, MMP-1 (Homo sapiens, UniProt P03956); assay: Measurement of matrix metalloprotease (MMP) inhibitory activity, MMP-1, fluorescence quenching peptide substrate; details: recombinant catalytic region of MMP-1; 37° C., 2 hours; Ki calculated from IC50 and Km; read-out: Ki MMP1
T2 construct: A DNA fragment coding for catalytic regions in MMP-1 and MMP-9; histidine tag (N); made in house; host or cells: E. coli
T2 sequence (P03956 98-276 limits assumed): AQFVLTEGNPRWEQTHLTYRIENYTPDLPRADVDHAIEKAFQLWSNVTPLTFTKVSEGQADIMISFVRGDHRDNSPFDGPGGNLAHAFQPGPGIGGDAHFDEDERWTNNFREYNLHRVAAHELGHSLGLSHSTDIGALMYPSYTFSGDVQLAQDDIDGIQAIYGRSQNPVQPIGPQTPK
Procedure: as §1, §2, §3

[1] = molecular target: T3, TNF-α converting enzyme (TACE) (Homo sapiens, UniProt P78536); assay: Measurement of inhibitory activity against TNF-α converting enzyme (TACE), fluorescence quenching peptide substrate
T3 construct: a DNA fragment cording a signal region, a pro-region and a catalytic region was amplified by a PCR method; FLAG octapeptide (C); made in house; host or cells: insect cells (baculovirus, pFastBac)
Procedure: A full length cDNA for TACE was cloned from THP-1 cells derived from human acute monocytic leukemia and a DNA fragment cording a signal region, a pro-region and a catalytic region was amplified by a PCR method. An appropriate restriction enzyme recognizing sequence was added to both terminals of the amplified fragment and also a sequence of an antigenic octapeptide (FLAG™) tag was inserted in the 3′ terminal. A recombinant bacmid was prepared from the resulting amplified fragment using a pFastBac system (Life Technologies) and then transfected into insect cells to generate a recombinant baculovirus. Insect cells were infected with the recombinant baculovirus and the recombinant TACE released into culture supernatant was purified by an affinity gel column.
The inhibitory activity was measured according to the method by Van Dyke et al. [Bioorg. […] A solution prepared by dissolving each of test compounds (a) to (f) in dimethylsulfoxide was diluted with a reaction buffer [20 mM tris-HCl buffer (pH 7.5) containing 0.05% Brij-35®] and then 40 μL of the dilute solution was added in a well. […] The inhibition rate (%) at each concentration of an inhibitor was calculated and an IC50 value was determined from the dose-response curve. From this IC50 value and previously determined Km value for a TACE substrate, a Ki value was calculated using data processing software (GraphPad Prism™, GraphPad Software, Inc.).

MMP-9 = molecular target: T4, MMP-9 (Homo sapiens, UniProt P14780); assay: Measurement of matrix metalloprotease (MMP) inhibitory activity, MMP-9, fluorescence quenching peptide substrate; details: read-out: Ki MMP9
T4 construct: A DNA fragment coding for catalytic regions in MMP-1 and MMP-9; histidine tag (N); made in house; host or cells: E. coli
Procedure: as §1, §2, §3

T3 sequence (P78536 223-474 limits assumed): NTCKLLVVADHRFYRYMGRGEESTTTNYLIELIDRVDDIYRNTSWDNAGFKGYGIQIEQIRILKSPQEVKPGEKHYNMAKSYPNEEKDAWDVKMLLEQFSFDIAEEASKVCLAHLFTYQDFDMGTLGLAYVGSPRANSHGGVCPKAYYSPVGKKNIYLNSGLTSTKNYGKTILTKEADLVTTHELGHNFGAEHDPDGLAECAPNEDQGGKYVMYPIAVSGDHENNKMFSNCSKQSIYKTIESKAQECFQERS
T4 sequence (P14780 107-444 limits assumed): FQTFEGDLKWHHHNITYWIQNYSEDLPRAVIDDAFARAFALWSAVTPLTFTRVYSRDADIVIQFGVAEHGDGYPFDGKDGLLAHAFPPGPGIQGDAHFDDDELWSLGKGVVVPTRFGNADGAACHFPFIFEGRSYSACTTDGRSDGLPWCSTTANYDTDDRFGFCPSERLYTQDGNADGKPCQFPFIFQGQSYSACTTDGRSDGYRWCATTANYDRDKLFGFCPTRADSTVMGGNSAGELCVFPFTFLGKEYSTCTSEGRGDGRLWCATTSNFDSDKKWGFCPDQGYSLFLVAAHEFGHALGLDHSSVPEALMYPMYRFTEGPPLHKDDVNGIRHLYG
T1 sequence (P08254 100-272 limits assumed): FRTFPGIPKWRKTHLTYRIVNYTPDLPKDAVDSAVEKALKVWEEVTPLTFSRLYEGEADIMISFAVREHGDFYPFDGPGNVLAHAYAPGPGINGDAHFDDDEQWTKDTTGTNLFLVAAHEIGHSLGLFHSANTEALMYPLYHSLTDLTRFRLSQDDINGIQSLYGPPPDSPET

| Compound | Ki (MMP-3) | Ki (MMP-1) | Ki [1] | Ki (MMP-9) |
| --- | --- | --- | --- | --- |
| CC#CCOc1ccc(S(=O)(=O)N2C[C@H](O)[C@H](O)[C@@H](OC)[C@@H]2C(=O)NO)cc1 [Compound (a), (2R,3S,4S,5S)-1-(4′-but-2′-ynyloxybenzenesulfonyl)-4,5-dihydroxy-3-methoxypiperidine-2-carboxylic acid hydroxamide] | > 650 nM | > 850 nM | 4.3 nM | > 790 nM |
| CC#CCOc1ccc(S(=O)(=O)N2C[C@H](O)[C@H](O)[C@@H](OCc3ccccc3)[C@@H]2C(=O)NO)cc1 [Compound (b), (2R,3S,4S,5S)-3-benzyloxy-1-(4′-but-2′-ynyloxybenzenesulfonyl)-4,5-dihydroxypiperidine-2-carboxylic acid hydroxamide] | > 650 nM | > 850 nM | 9.4 nM | > 790 nM |
| CC#CCOc1ccc(S(=O)(=O)N2C[C@H](OC)[C@H](O)[C@@H](O)[C@@H]2C(=O)NO)cc1 [Compound (c), (2R,3S,4R,5S)-1-(4′-but-2′-ynyloxybenzenesulfonyl)-3,4-dihydroxy-5-methoxypiperidine-2-carboxylic acid hydroxamide] | > 650 nM | > 850 nM | 2.4 nM | > 790 nM |
| CC#CCOc1ccc(S(=O)(=O)N2C[C@H](O)[C@H](O)[C@@H](O)[C@@H]2C(=O)NO)cc1 [Compound (d), (2R,3S,4S,5S)-1-(4′-but-2′-ynyloxybenzenesulfonyl)-3,4,5-trihydroxy-piperidine-2-carboxylic acid hydroxamide] | 490 nM | > 850 nM |  | > 790 nM |
| CC#CCOc1ccc(S(=O)(=O)N2C[C@H](O)[C@H](O)[C@@H](OCC)[C@@H]2C(=O)NO)cc1 [Compound (e), (2R,3S,4S,5S)-1-(4′-but-2′-ynyloxybenzenesulfonyl)-4,5-dihydroxy-3-ethoxypiperidine-2-carboxylic acid hydroxamide] | > 650 nM | > 850 nM | 8.5 nM | > 790 nM |
| CO[C@@H]1[C@@H](O)[C@@H](O)CN(S(=O)(=O)c2ccc(OCC#CCO)cc2)[C@H]1C(=O)NO [Compound (f), (2R,3S,4S,5S)-4,5-dihydroxy-1-[4′-(4″-hydroxy-but-2′-ynyloxy)benzenesulfonyl]-3-methoxy-piperidine-2-carboxylic acid hydroxamide] | > 650 nM | > 850 nM | 18 nM | > 790 nM |
